Tests used:
Meniere's disease = conditions: existing drug (diuretic drug); cited from earlier work
rats = assay: acute toxicity, minimum lethal dose; type: in vivo; conditions: male and female, orally or subcutaneously
[1] = test system: patients afflicted with Meniere's disease; assay: clinical pharmacological test in patients afflicted with Meniere's disease (Example 1); type: in vivo; conditions: 450 mg daily
Description: Pranlukast hydrate (trade name: onon capsule) was administered to 19 patients afflicted with Meniere's disease at a daily dose of 450 mg (two capsules each containing 112.5 mg individually after breakfast and after dinner) for the period of not less than three weeks (up to 24 weeks max.) to test and determine the efficacy. The overall efficacy (therapeutic) assessment was performed mainly on the basis of the results of nystagmus and hearing tests, while also taking into consideration the subjective symptoms (rotary vertigo, tinnitus, a feeling of fullness in ear, hearing rimpairment, etc.) and the extent or degree of hearing impairment (average hearing, method of quartering). In consequence of this, the efficacy was recognized and determined in 17(89.5%) out of 19 patients afflicted with Meniere's disease.

mice = assay: acute toxicity, minimum lethal dose; type: in vivo; conditions: male and female, orally or subcutaneously
[2] = test system: patients suffering from acute low-tone sensorineural hearing loss; assay: clinical test in patients with acute low-tone sensorineural hearing loss (Example 2); type: in vivo; conditions: for Hearing in the sound ear 500 Hz: before administration 10 dB; for Hearing in the sound ear 250 Hz: before administration 15 dB; for Hearing in the sound ear Average hearing level: before administration 17 dB; for Hearing in the sound ear 125 Hz: before administration 25 dB; for Hearing in the affected ear 500 Hz: before administration 35 dB; for Hearing in the affected ear 125 Hz: before administration 40 dB; for Hearing in the affected ear Average hearing level: before administration 42 dB; for Hearing in the affected ear 250 Hz: before administration 50 dB
Description: Pranlukast hydrate (trade name: Onon capsule) was administered to the patients suffering from acute low-tone sensorineural hearing loss concurrently with a feeling of fullness in the left ear at a daily dose of 450 mg (two capsules each containing 112. 5 mg given individually after breakfast and dinner) for two months to investigate into the efficacy against hearing impairment, the major complaint. In connection to the above test, it is to be noted that selection of patients was performed in accordance with a draft of the Criteria for Diagnosis proposed by Study Group for Acute Severe Hearing Loss of the Ministry of Health, Labor and Welfare of Japan (refer to Audiology Japan., 45, 161-166 (2002)).

SMILES: O[C@@H]1CO[C@H]2[C@@H]1OC[C@@H]2O [isosorbide]
- efficacy against hearing impairment, tinnitus and a feeling of fullness in the ear (Meniere's disease): hardly been found to exhibit the efficacy

SMILES: O=C(Nc1cccc2c(=O)cc(-c3nnn[nH]3)oc12)c1ccc(OCCCCc2ccccc2)cc1 [pranlukast hydrate, 4-oxo-8-[4-(4-phenylbutoxy)benzoylamino]-2-(tetrazol-5-yl)-4H-1-benzopyran ½ hydrate]
- minimum lethal dose (rats): not less than 2000 mg/kg
- overall efficacy, patients in whom efficacy was recognized ([1]; oral, not less than three weeks (up to 24 weeks), 17 out of 19 patients): 89.5%
- effective rate in patients suffering from vertigo (rotary vertigo or stagger) ([1]; 6 out of 6 patients): 100%
- efficacy in patients complaining of the subjective symptoms ([1]; 15 out of 19 patients): 78.9%
- efficacy in patients suffering from hearing impairment ([1]; 15 out of 19 patients): 78.9%
- minimum lethal dose (mice): not less than 2000 mg/kg
- average hearing level recovered ([2]; 450 mg daily, after one month of administration, affected ear): 19 dB
- efficacy evaluation (healed/ameliorated/unchanged/worsened) ([2]; 450 mg daily, after two months of administration): healing
- effect on subjective symptoms and hearing ([2]; 450 mg daily, within one week of administration): tendency of amelioration
- Hearing in the sound ear 500 Hz ([2]; after one month): 15 dB
- Hearing in the sound ear 250 Hz ([2]; after one month): 15 dB
- Hearing in the sound ear Average hearing level ([2]; after one month): 18 dB
- Hearing in the sound ear 125 Hz ([2]; after one month): 25 dB
- Hearing in the affected ear 500 Hz ([2]; after one month): 15 dB
- Hearing in the affected ear 125 Hz ([2]; after one month): 30 dB
- Hearing in the affected ear Average hearing level ([2]; after one month): 23 dB
- Hearing in the affected ear 250 Hz ([2]; after one month): 25 dB
- Hearing in the sound ear 500 Hz ([2]; after two months): 10 dB
- Hearing in the sound ear 250 Hz ([2]; after two months): 15 dB
- Hearing in the sound ear Average hearing level ([2]; after two months): 17 dB
- Hearing in the sound ear 125 Hz ([2]; after two months): 25 dB
- Hearing in the affected ear 500 Hz ([2]; after two months): 10 dB
- Hearing in the affected ear 125 Hz ([2]; after two months): 25 dB
- Hearing in the affected ear Average hearing level ([2]; after two months): 18 dB
- Hearing in the affected ear 250 Hz ([2]; after two months): 20 dB

From US20070249695A1, “Preventive and/or Therapeutic Agents for Meniere's Disease” (priority 2004, published 2007)
